Assay results: patent US20130171103A1, “METHODS FOR TREATING VIRAL CONDITIONS” (PTC Therapeutics, Inc., priority 2010, published 2013)
Values joined by “and” are separate entries in the source; they are usually repeats but may differ in a detail not shown here. Equal entries are not always repeated.

Legend:
HT1080 cells = test: Cell cycle analysis by propidium iodide staining and flow cytometry; assay type: cell-based; conditions: for effect on cell cycle distribution / % Cells In S-Phase: normoxic; for effect on cell cycle distribution: #10 0.3-100 nM, 1205 10 nM; for % Cells In S-Phase: HT1080 cells, 100 nM, 18 hours, DMSO control 17.3, >20% considered active
[1] = Bioavailability in vivo from aqueous suspension; conditions: administered in an aqueous suspension
Method: It is anticipated that Compound 1205 can be clinically administered via a solid-dosage form. For all the studies outlined herein, Compound 1205 was lyophilized prior to formulation to minimize batch-to-batch variations in particle-size.
The compound was dissolved in acetonitrile at a concentration of 15 mg/mL. An equal amount of water was added to bring the final concentration to 7.5 mg/mL in a 1:1 acetonitrile/water solution (v/v). The solution was frozen on the shelf of the freeze dryer for a minimum of 3 hours and then lyophilized. The resulting solid was determined to be amorphous by differential scanning calorimetry and polarized light microscopy. Suspensions were prepared by the addition of 0.5% HPMC with 1% Tween-80, followed by stirring and homogenization for 2 minutes.

in vitro [2] = conditions: African green monkey
in vitro [3] = conditions: African green monkey, CC50 (μM)
[4] = Toxicology study in dogs through 28 days; assay type: in vivo; conditions: doses and exposures in excess of therapeutic nonclinical doses
From the text: (§1) Nonclinical safety testing further supports clinical development of Compound #10.

HT1080 spheroids = test: 3-dimensional growth of HT1080 spheroids (BrdU/7-AAD FACS, morphology); assay type: cell-based
[5] = Cytotoxicity (CC50) in MT-2 cells; assay type: cell-based; conditions: human, MT-2, HIV-1 line
HT 1080 cells = test: Kinetics of S-phase transit by BrdU incorporation into DNA; assay type: cell-based; conditions: 18-hour treatment
Method: HT 1080 cells are exposed to BrdU (bromodeoxyuridine, a synthetic nucleoside that is an analogue of thymidine and is incorporated into DNA during the S phase of cell division) (FITC BrdU Flow Kit, BD Pharmingen catalog #552598). Cells are grown and treated as described in Section 9.3.1.3 above with the exception that one hour prior to harvesting by trypsinization, BrdU (final concentration 1 μM) is added to each culture for 1 hour. Cells actively replicating DNA during this brief time incorporate the BrdU into the DNA, which can then be quantified. BrdU content is quantified using the FITC BrdU Flow Kit as instructed by the manufacturer. The process includes fixation (paraformaldehyde) and DNA staining with 7-AAD (7-amino-actinomycin D) followed by incubation with a fluoro-tagged anti-BrdU antibody that specifically recognizes BrdU incorporated into DNA. Dual channel FACS analysis permits assessment of both the DNA content of individual cells and the rate of transit across the S-phase, which is assessed based upon BrdU incorporation over the one hour treatment period.

Adenovirus = Adenovirus CPE protection assay in HeLa cells; assay type: cell-based; conditions: unidentified adenovirus, DNA
[6] = Cytotoxicity (CC50) in PBMCs; assay type: cell-based; conditions: human, HIV-1 line
[7] = Phase 1b and Phase 2 studies in patients with neoplasia (safety); assay type: in vivo, human; conditions: 0.3 mg/kg/dose BID to 200 mg/dose TID, at least 4-6 weeks
Method: To date, doses of 0.3 mg/kg/dose (˜20 mg/dose) (n=6), 0.6 mg/kg/dose (˜40 mg/dose) (n=9), 1.2 mg/kg/dose (˜80 mg/dose) (n=12) BID have been tested for at least 4 weeks. In addition, 100 mg/dose BID (n=52), 100 mg/dose TID (n=6), 120 mg/dose TID (n=3), 160 mg/dose TID (N=3), and 200 mg/dose TID (n=3) have been tested for at least 6 weeks of continuous treatment.

Influenza A = test: microbe, parasite or virus in culture; assay type: cell-based; conditions: MDCK
[8] = Phase 1a single-dose study in healthy volunteers; assay type: in vivo, human; conditions: healthy subjects, single doses through 3 mg/kg (~210 mg), highest single dose tested
Method: Initial clinical evaluation of Compound #10 was performed in healthy volunteers.

in vitro [9] = conditions: dog
Genotoxicity studies = test: Genotoxicity studies
From the text: as §1

HIV-1 [10] = test: HIV-1 p24 ELISA assay in PBMCs; assay type: cell-based; conditions: Human immunodeficiency virus 1, PBMC, HIV-1, Retro
Method: (§2) The activity against HIV-1 was tested in MT2 cells and PBMCs in cell culture by preventing virus induced cytopathic effect and measuring viral p24 protein in the culture supernatant.

Dengue 2 = Dengue 2 CPE protection assay in Vero E6 cells; assay type: cell-based; conditions: Dengue virus, Vero C1008, Dengue 2, (+) RNA
HIV-1 [11] = test: HIV-1 CPE protection assay in MT-2 cells; assay type: cell-based; conditions: Human immunodeficiency virus 1, MT2; HIV-1, Retro, MT-2, CPE protection
Method: as §2

Parainfluenza = Parainfluenza CPE protection assay in Vero cells; assay type: cell-based, parainfluenza virus; conditions: (−) RNA
in vitro [12] = conditions: human
HSV-1 = HSV-1 CPE protection assay in Vero cells; assay type: cell-based, herpes simplex virus-1; conditions: Human alphaherpesvirus 1, HSV-1, DNA
[13] = Cytotoxicity (CC50) in HeLa cells; conditions: human
RSV = RSV CPE protection assay in Vero cells; assay type: cell-based; conditions: human respiratory syncytial virus
Vero = conditions: WNV line
[14] = Safety pharmacology studies
From the text: as §1

[15] = Toxicology study in rats through 28 days; assay type: in vivo; conditions: doses and exposures in excess of therapeutic nonclinical doses
From the text: as §1

HCV genotype 1b replicon = test: HCV subgenomic replicon assay, genotype 1b, standard cell culture; assay type: cell-based, hepatitis C virus

SMILES: O=C(Oc1ccc(Cl)cc1)N1CCc2c([nH]c3ccc(Cl)cc23)[C@@H]1c1ccc(OCC[C@H](O)CO)cc1 [Compound 1205]
- effect on cell cycle distribution (HT1080 cells; HT1080, 18 hours): induced a redistribution of the cycling characteristics of the cell population
- bioavailability in vivo [1]: bioavailable

SMILES: COc1ccc([C@H]2c3[nH]c4ccc(Cl)cc4c3CCN2C(=O)Oc2ccc(Cl)cc2)cc1 (racemic) [#10]
- CC50 (in vitro [2]): > 1 µM
- CC50 (in vitro [3]): 0.7 µM and 0.083 µM
- tolerability in toxicology study [4]: good tolerability
- percentage of spheroid cells that incorporated BrdU (cells in S-phase) (HT1080 spheroids; 24 or 48 hours, 10 nM or 50 nM): not significantly altered
- gross morphology of spheroids (HT1080 spheroids; day 5 of treatment, 10 nM or 50 nM): indistinguishable from one another
- morphology of spheroids (HT1080 spheroids; maintained in presence of compound for three weeks): no obvious morphological changes
- cell cycle distribution of HT1080 spheroids (HT1080 spheroids; treated for 24 hours): not affected
- cell cycle distribution of HT1080 spheroids (HT1080 spheroids; treated for 48 hours): not affected
- CC50 [5]: 0.0041 µM
- BrdU incorporated by individual cells during one-hour pulse versus DMSO control (HT 1080 cells): less BrdU
- percentage of cells residing in S-phase (HT 1080 cells; increasing doses (1-100 nM)): net increase
- IC50 (Adenovirus): > 1 µM
- IC90 (Adenovirus): > 1 µM
- CC50 [6]: 0.68 µM
- clinical tolerability [7]: generally well tolerated
- IC50 (Influenza A): > 1 µM
- IC90 (Influenza A): > 1 µM
- clinical safety [8]: acceptable safety
- CC50 (in vitro [9]): > 1 µM
- genotoxicity finding (Genotoxicity studies): no evidence of genotoxic effects
- IC50 (HIV-1 [10]): > 1 µM
- IC50 (Dengue 2): > 1 µM
- IC90 (Dengue 2): > 1 µM
- concentration from which an accumulation of cells in S phase is observed (HT1080 cells; HT1080, 18 hours): ≥ 1 nM
- effect on cell cycle distribution (HT1080 cells; HT1080, 18 hours): induced a redistribution of the cycling characteristics of the cell population
- IC50 (HIV-1 [11]): 0.022 µM
- IC50 (Parainfluenza): 0.029 µM
- IC90 (Parainfluenza): 0.044 µM
- CC50 (in vitro [12]): > 1 µM
- IC50 (HSV-1): > 1 µM
- IC90 (HSV-1): > 1 µM
- CC50 [13]: > 1 µM
- IC50 (RSV): 0.25 µM
- IC90 (RSV): ≥ 0.16 µM
- CC50 (Vero): > 1 µM
- safety pharmacology finding [14]: no adverse off-target effects
- tolerability in toxicology study [15]: good tolerability
- antiviral activity in HCV replicon systems (HCV genotype 1b replicon): potent in vitro inhibitory activity

SMILES: O=C(Oc1ccc(Cl)cc1)N1CCc2c([nH]c3ccc(Cl)cc23)C1c1ccc(OCCN2CCOCC2)cc1 (stereo not drawn) [Compound 331]
- % Cells In S-Phase (HT1080 cells): 16.4%

SMILES: O=C(Oc1ccc(Cl)cc1)N1CCc2c([nH]c3ccc(Cl)cc23)C1c1ccc(OCCN2CCCCC2)cc1 (stereo not drawn) [Compound 1736]
- % Cells In S-Phase (HT1080 cells): 16.8%
